This passage reports IC50, AC50 and EC50 results from ChEMBL document CHEMBL1201862, “PubChem BioAssay data set” (2004).

pIC50: −log10 of the molar value. Activity calls are given as the source filed them.

The target of experiment [1] is Metabotropic glutamate receptor 3 (Rattus norvegicus, UniProt P31422). Put plainly: inhibitors of rat mGlu3 Galpha15 signaling – TREx293 cells, calcium flux, mGlu3 NAM project, dose response (AID 651840). Format: functional. (In general: Calcium assays in cells follow changes in intracellular calcium, usually with a dye or a luminescent sensor.)
Experiment [2] can be described thus: cells. The conditions noted are these: HEK293.
The target of experiment [3] is Kallikrein-7 (Homo sapiens, UniProt P49862). Put plainly: Fluorescence Intensity-based biochemical primary high throughput dose response assay to identify activators of kallikrein-7 (K7) zymogen.
The target of experiment [4] is Apoptotic protease-activating factor 1 (Homo sapiens, UniProt O14727). Format: functional.
Experiment [5] is described as follows: viability loss in HepG2 hepatoma cells – cell-based, ATP luminescence, cherry-pick, activator set 2, cytotoxicity control, dose response (AID 1053143). The format is functional.
The target in experiment [6] is T1, Microphthalmia-associated transcription factor (Homo sapiens, UniProt O75030).
T1 sequence (O75030 whole entry): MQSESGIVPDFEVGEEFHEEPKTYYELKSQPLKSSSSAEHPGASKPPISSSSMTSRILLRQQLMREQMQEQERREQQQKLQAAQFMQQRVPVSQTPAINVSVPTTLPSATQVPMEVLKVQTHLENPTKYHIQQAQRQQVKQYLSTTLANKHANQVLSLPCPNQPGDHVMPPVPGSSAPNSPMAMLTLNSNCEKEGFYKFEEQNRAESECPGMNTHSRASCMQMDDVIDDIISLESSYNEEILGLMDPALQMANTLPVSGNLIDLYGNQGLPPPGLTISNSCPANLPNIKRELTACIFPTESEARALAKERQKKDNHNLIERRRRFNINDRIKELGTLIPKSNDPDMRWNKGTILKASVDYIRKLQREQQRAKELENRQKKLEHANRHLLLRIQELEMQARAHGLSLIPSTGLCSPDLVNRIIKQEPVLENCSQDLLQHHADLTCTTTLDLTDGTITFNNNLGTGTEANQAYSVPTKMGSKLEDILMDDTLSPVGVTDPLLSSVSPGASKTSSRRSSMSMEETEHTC
Put plainly: reducers of TRPM1 reporter luminescence, concentration series – cell-based, SK-MEL-5, cherry-picked, set 3, MITF inhibitor project, dose response (AID 493073).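 Also: SK-MEL-5 melanoma cells with luciferase driven by the MITF target TRPM1 promoter.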 Format: functional.

Experiment [7] can be described thus: reduced cellular PGC1a acetyl-lysine signal – cell-based, cherry-picked samples, dose response (AID 720514).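 Also: potency may reflect raised or lowered acetylation signal.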 The format is functional.
Experiment [8] in a line: P. falciparum Dd2 growth inhibitors, dose response, SYBR Green, cherry-picked samples (AID 1159567). Format: functional, cell-based.
The nature of experiment [9]: toxicity to human hepatoma HepG2 cells – cell-based, cherry-picked samples, cytotoxicity control, dose response (AID 1159577). Format: functional.
A short description of experiment [10]: non-specific 3'UTR reporter inhibition in Clone20-Shn3RL – cell-based, Renilla luciferase, cherry-picked, counter-screen for Shn3 inhibitor project, dose response (AID 624133). The format is functional. (In general: A counterscreen serves to expose hits that act by an unwanted route or on another target.)
The nature of experiment [11]: Shn3 3'UTR reporter signal decrease – cell-based, Clone20 osteoblasts, firefly luciferase, cherry-pick, set 2, Schnurri-3 inhibitor project, dose response (AID 720490).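 Also: actives lower the luminescence signal as inhibitors.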 Format: functional.
Experiment [12] relates to INS1. Put plainly: INS-1E survival protection against cytokine death – cell-based, luminescence, retest, dose response (AID 449756).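 Also: cell death triggered by IL-1 beta plus TNF-alpha plus IFN-gamma mixture; protective hits raise ATP signal compared with cytokine alone wells.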 As to conditions: Rattus norvegicus, INS1. The format is functional.
Experiment [13] in a line: reduction of Shn3 3'UTR-driven luciferase in osteoblasts – cell-based, Clone20 osteoblasts, firefly luciferase, cherry-picked, dose response (AID 624132).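 Also: firefly luciferase luminescence from reporter carrying the Shn3 3'UTR in osteoblasts.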 The format is functional.
Experiment [14] is described as follows: loss of viability in HepG2 cells – cell-based, CellTiter-Glo, cherry-picked, cytotoxicity control for Shn3 inhibitor project, dose response (AID 624134). The format is functional.
Experiment [15] in a line: EF1alpha-driven Renilla reporter with control 3'UTR suppression – Clone20-Shn3RL cells, dual-Glo, cherry-pick, set 2, counter-screen for Shn3 3'UTR targeting project, dose response (AID 720724). The format is functional, cell-based. The conditions noted are these: Dual-Go Shn3RL.
Experiment [16] concerns the target 1-phosphatidylinositol 4,5-bisphosphate phosphodiesterase beta-3 (Homo sapiens, UniProt Q01970). Put plainly: Fluorescence-based biochemical high throughput dose response assay to identify inhibitors of phospholipase C isozymes (PLC-B3).
Experiment [17] concerns the target 1-phosphatidylinositol 4,5-bisphosphate phosphodiesterase gamma-1 (Homo sapiens, UniProt P19174). Put plainly: Counterscreen for inhibitors of phospholipase C isozymes (PLC-B3): Fluorescence-based biochemical high throughput dose response assay to identify inhibitors of phospholipase C isozymes (PLC-gamma1).
In experiment [18] the target is T2, Sentrin-specific protease 8 (Homo sapiens, UniProt Q96LD8).
T2 sequence (Q96LD8 whole entry): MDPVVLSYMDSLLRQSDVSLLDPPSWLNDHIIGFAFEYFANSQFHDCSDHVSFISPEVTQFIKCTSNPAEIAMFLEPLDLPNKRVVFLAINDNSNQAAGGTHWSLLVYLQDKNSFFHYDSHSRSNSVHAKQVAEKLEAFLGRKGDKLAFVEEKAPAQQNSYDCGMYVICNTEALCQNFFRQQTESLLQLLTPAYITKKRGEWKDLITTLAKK
The format is functional.

In experiment [19] the target is T3, Polyadenylate-binding protein 1 (Homo sapiens, UniProt P11940). Put plainly: MLLE domain peptide-binding blockers, IC50 – biochemical, fluorescence polarization, FITC-PAM2 peptide, dose response (AID 602259). Format: functional. The conditions noted are these: read-out: IC50_Mean. In general terms: Polarisation of emitted light reports the rotation of a fluorescent probe.

Experiment [20] deals with Tyrosyl-DNA phosphodiesterase 2 (Homo sapiens, UniProt O95551). Put plainly: potency against TDP2 phosphodiesterase activity – biochemical, epi absorbance, IC50, dose response (AID 743297).
The target of experiment [21] is T4, Caspase-3 (Homo sapiens, UniProt P42574).
T4 sequence (P42574 whole entry): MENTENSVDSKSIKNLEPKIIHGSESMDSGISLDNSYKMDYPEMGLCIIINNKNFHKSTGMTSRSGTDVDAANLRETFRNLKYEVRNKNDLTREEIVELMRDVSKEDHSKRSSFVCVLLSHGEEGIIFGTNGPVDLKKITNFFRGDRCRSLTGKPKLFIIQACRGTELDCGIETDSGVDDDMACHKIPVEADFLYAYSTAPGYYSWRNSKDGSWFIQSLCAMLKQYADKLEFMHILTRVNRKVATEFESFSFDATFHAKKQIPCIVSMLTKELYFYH
Put plainly: Dose-response confirmation of uHTS inhibitor hits of Sentrin-Specific Protease 8 in a Caspase-3 Fluorescence assay. The format is functional.

Experiment [22] concerns the target T2, Sentrin-specific protease 8. The format is functional. The source holds these as a separate data set.
In experiment [23] the target is T3, Polyadenylate-binding protein 1. Put plainly: MLLE binding blockers, Cy5 peptide tracer – biochemical, fluorescence polarization, Cy5-PAM2 peptide, secondary, miRNA deadenylation inhibitor project, dose response (AID 602260). The conditions noted are these: read-out: IC50_Mean. The format is functional.

T3 sequence (P11940 whole entry, the tested form may be a part): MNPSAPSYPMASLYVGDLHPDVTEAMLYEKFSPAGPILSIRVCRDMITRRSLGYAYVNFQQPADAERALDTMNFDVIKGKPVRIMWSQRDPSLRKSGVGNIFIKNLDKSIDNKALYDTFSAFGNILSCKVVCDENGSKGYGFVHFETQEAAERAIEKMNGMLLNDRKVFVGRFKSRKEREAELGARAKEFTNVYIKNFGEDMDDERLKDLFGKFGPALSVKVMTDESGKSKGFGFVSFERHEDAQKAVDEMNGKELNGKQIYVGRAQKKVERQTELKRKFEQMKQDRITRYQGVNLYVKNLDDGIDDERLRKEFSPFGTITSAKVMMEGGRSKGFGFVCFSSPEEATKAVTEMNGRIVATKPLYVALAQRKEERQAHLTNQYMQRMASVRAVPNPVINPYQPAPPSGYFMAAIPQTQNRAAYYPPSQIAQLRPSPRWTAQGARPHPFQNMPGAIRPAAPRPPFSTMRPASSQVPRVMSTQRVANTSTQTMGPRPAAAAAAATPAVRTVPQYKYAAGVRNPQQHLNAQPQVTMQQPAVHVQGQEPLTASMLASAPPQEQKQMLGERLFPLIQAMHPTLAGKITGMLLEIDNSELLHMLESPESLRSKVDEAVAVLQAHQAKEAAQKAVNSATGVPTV
Chain of Tyrosyl-DNA phosphodiesterase 2 (O95551 whole entry): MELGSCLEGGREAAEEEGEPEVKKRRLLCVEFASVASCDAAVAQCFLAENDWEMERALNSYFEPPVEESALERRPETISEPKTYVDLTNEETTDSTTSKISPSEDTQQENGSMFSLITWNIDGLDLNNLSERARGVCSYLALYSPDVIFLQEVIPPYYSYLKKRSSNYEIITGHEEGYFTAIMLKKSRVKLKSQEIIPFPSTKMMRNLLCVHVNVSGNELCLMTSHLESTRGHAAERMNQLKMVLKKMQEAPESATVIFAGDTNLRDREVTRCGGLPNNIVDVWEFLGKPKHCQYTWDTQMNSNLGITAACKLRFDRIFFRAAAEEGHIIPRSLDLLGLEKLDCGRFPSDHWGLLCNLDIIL
Chain of 1-phosphatidylinositol 4,5-bisphosphate phosphodiesterase beta-3 (Q01970 whole entry): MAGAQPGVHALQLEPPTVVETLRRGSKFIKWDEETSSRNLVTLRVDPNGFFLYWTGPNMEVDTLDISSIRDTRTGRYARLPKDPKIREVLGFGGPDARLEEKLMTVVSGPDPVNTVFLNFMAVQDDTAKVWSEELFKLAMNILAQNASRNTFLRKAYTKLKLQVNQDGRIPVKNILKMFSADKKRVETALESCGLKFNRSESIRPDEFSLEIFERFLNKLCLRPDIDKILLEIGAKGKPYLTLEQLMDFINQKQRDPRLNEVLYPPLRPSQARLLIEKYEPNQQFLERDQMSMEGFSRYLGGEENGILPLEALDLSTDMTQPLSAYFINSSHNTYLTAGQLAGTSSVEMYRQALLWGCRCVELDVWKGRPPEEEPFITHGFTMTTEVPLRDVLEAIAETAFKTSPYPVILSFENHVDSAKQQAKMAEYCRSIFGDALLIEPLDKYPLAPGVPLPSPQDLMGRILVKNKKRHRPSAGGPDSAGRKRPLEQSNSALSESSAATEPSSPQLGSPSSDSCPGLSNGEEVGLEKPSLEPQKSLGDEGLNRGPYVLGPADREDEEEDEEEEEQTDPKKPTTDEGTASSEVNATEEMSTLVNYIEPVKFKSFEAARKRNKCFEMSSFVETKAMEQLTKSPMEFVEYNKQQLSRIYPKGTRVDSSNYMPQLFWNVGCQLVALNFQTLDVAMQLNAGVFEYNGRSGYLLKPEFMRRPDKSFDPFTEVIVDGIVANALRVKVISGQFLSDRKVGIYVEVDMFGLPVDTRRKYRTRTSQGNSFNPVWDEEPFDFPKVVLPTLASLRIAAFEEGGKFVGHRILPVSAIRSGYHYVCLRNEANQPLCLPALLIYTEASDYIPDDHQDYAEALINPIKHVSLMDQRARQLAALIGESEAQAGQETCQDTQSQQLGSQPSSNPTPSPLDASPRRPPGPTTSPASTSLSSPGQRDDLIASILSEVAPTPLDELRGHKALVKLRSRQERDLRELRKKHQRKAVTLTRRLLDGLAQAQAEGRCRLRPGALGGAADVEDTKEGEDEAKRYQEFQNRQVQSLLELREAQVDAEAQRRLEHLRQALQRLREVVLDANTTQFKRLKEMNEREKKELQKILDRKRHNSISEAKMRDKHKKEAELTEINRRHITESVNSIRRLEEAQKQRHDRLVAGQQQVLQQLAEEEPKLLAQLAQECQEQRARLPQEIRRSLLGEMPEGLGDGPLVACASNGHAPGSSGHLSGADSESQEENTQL
Chain of Apoptotic protease-activating factor 1 (O14727 whole entry): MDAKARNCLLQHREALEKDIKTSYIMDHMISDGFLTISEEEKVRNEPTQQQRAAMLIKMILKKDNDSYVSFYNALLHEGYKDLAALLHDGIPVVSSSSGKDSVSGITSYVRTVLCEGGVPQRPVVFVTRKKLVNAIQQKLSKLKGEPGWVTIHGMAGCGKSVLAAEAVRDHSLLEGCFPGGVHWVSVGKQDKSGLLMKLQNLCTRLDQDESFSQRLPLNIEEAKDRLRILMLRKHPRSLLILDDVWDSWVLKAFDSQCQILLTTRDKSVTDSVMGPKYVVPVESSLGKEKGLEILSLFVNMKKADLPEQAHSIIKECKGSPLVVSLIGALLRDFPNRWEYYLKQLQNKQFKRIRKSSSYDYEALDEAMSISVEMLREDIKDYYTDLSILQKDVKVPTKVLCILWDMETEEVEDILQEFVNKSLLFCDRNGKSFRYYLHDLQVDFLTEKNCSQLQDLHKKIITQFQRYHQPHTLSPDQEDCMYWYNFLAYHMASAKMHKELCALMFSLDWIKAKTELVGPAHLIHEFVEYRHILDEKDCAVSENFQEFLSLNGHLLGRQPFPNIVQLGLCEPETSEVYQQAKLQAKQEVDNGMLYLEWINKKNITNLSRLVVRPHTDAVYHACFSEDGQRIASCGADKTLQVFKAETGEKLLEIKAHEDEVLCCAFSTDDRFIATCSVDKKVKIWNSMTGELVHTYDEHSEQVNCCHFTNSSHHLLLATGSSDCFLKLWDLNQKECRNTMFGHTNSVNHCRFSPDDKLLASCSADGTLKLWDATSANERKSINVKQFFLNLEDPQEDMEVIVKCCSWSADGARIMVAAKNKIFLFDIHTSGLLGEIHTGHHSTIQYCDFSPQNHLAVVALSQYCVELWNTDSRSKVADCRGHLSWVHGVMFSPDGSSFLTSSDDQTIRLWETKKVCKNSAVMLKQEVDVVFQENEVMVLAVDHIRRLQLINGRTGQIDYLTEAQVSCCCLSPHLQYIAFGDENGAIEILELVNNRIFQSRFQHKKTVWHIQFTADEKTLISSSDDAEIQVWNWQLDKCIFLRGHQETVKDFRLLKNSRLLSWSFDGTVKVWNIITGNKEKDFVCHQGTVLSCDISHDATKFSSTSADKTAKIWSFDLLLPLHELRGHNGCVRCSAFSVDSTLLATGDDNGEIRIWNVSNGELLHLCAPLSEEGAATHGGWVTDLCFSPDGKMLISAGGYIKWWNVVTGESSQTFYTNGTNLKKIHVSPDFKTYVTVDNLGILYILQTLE
Chain of Metabotropic glutamate receptor 3 (P31422 whole entry): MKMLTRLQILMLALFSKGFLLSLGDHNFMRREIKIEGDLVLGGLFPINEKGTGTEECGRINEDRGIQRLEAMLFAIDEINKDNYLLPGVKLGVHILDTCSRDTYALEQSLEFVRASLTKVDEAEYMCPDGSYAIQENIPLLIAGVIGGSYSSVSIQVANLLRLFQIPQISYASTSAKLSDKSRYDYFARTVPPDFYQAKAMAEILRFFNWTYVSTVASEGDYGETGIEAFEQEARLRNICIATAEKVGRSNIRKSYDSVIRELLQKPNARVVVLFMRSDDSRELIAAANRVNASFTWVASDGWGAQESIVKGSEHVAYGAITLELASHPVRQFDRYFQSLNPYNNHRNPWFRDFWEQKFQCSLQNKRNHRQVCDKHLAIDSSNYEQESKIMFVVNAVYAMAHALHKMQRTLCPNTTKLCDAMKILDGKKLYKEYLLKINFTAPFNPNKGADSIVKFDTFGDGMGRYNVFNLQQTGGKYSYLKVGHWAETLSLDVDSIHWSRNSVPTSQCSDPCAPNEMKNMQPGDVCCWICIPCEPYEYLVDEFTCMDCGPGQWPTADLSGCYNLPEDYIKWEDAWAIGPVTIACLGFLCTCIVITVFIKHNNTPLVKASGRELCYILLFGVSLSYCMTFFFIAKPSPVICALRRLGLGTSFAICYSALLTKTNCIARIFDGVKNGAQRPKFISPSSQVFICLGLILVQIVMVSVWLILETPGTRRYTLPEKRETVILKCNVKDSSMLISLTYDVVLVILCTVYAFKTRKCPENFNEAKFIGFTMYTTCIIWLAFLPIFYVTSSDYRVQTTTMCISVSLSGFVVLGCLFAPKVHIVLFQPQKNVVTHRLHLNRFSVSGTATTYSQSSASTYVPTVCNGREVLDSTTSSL
Chain of Kallikrein-7 (P49862 whole entry): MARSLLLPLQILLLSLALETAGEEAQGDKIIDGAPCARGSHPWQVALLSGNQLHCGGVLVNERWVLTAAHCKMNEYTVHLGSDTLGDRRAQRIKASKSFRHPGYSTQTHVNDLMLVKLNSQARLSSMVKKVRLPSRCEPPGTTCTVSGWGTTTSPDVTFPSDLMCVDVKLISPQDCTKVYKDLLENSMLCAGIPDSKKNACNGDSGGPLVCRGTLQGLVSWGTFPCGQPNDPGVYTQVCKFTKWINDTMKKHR

Usually pIC50 stands for the negative decadic logarithm of the IC50, by convention in mol/L. `COc1ccc(C#Cc2ccc(C(=O)N3CCC[C@@H](O)C3)c(F)c2)cc1`: the pIC50 in [1] was 6.29.
For orientation: AC50 means the midpoint of the concentration-response curve, whichever way the signal moves. As to `CC1CCN(C(=O)COc2cccc3c2CCN(Cc2ccccc2)C3=O)CC1`, the AC50 in experiment [2] was 28.7 µM (active).
As a reminder, the EC50 is the concentration at which the effect is half-maximal. In the case of `Cc1cccn2c(=O)c3cc(C#N)/c(=N/C(=O)c4ccccc4)n(Cc4ccco4)c3nc12`, the 50% effective concentration (EC50) in experiment [3] is 7.95 µM (active).
Turning to `CCc1ccc(NC2=CC(=O)C(=O)c3ccccc32)cc1`, the IC50 in [4] is 3.54 µM (active). The figures for the AC50 in experiment [5] and in [6] were 6.77 µM (active) and 3.59 µM (active), respectively.
Take `OC[C@H]1[C@H](c2ccc(C#CC3CCCC3)cc2)[C@@H]2CN(CCC(F)(F)F)CCCCN12`: the AC50 in [7] was 16.8 µM (active); in experiment [8], 0.848 µM (active); in experiment [9], 10.4 µM (active).
For `CC(=O)N1c2ccc(S(=O)(=O)N3CCC(C(=O)N4CCN(c5cccc(C(F)(F)F)c5)CC4)CC3)cc2CC1C` (stereo not drawn), the concentration at half-maximal activity (AC50) in [10] was 4.45 µM (active); in experiment [11], 1.54 µM (active); in [12], 7.43 µM (active); in experiment [13] it was 1.28 µM (active); in experiment [14], > 70 µM (inactive); in [15], 1.47 µM (active).
In the case of `O=C(C[S+]([O-])c1cccc(C(F)(F)F)c1)Nc1ccc(Cl)cc1Cl` (stereo not drawn), the figures for the IC50 in experiment [16] and in [17] were > 122 µM (inactive) and 56.9 µM (inactive), respectively.
For `COc1ccc2c(c1)Cc1sc(NC(C)=O)nc1-2`, the IC50 was 9.19 µM (active) in [18]; > 66 µM (inactive) in experiment [19]; 67.5 µM (inactive) in experiment [20]; 23.9 µM (active) in [21]; 6.35 µM (active) in experiment [22]; > 66 µM (inactive) in experiment [23].
